Reference: PubChem BioAssay (NCI)
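Exposure lasted 48 hours, with cells grown in 96-well plates and compounds tested at five concentrations. Definition used: TGI = concentration required for complete inhibition of growth.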

Key:
Experiment in all cases: DTP human tumour cell line panel, 48 h
A498 renal = test system: A498 renal
A549 NSCLC = test system: A549 NSCLC
ACHN renal = test system: ACHN renal
CCRF-CEM leukemia = test system: CCRF-CEM leukemia
COLO 205 colon = test system: COLO 205 colon
DLD-1 colon = test system: DLD-1 colon
DMS 114 small cell lung = test system: DMS 114 small cell lung
DMS 273 small cell lung = test system: DMS 273 small cell lung
EKVX NSCLC = test system: EKVX NSCLC
HCT-116 colon = test system: HCT-116 colon
HCT-15 colon = test system: HCT-15 colon
HL-60(TB) leukemia = test system: HL-60(TB) leukemia
HOP-18 NSCLC = test system: HOP-18 NSCLC
HOP-62 NSCLC = test system: HOP-62 NSCLC
HOP-92 NSCLC = test system: HOP-92 NSCLC
HT29 colon = test system: HT29 colon
IGROV1 ovarian = test system: IGROV1 ovarian
K-562 leukemia = test system: K-562 leukemia
KM12 colon = test system: KM12 colon
KM20L2 colon = test system: KM20L2 colon
LOX IMVI melanoma = test system: LOX IMVI melanoma
LXFL 529 NSCLC = test system: LXFL 529 NSCLC
M14 melanoma = test system: M14 melanoma
M19-MEL melanoma = test system: M19-MEL melanoma
MALME-3M melanoma = test system: MALME-3M melanoma
MOLT-4 leukemia = test system: MOLT-4 leukemia
NCI-H226 lung = test system: NCI-H226 lung
NCI-H23 lung = test system: NCI-H23 lung
NCI-H460 lung = test system: NCI-H460 lung
NCI-H522 lung = test system: NCI-H522 lung
OVCAR-3 ovarian = test system: OVCAR-3 ovarian
OVCAR-4 ovarian = test system: OVCAR-4 ovarian
OVCAR-5 ovarian = test system: OVCAR-5 ovarian
OVCAR-8 ovarian = test system: OVCAR-8 ovarian
RPMI-8226 leukemia = test system: RPMI-8226 leukemia
RXF 393 renal = test system: RXF 393 renal
SF-268 CNS = test system: SF-268 CNS
SF-295 CNS = test system: SF-295 CNS
SF-539 CNS = test system: SF-539 CNS
SK-MEL-2 melanoma = test system: SK-MEL-2 melanoma
SK-MEL-28 melanoma = test system: SK-MEL-28 melanoma
SK-OV-3 ovarian = test system: SK-OV-3 ovarian
SN12C renal = test system: SN12C renal
SNB-19 CNS = test system: SNB-19 CNS
SNB-78 CNS = test system: SNB-78 CNS
SR leukemia = test system: SR leukemia
SW-620 colon = test system: SW-620 colon
TK-10 renal = test system: TK-10 renal
U251 CNS = test system: U251 CNS
UACC-257 melanoma = test system: UACC-257 melanoma
UO-31 renal = test system: UO-31 renal
XF 498 CNS = test system: XF 498 CNS
786-0 renal = test system: 786-0 renal
HCC-2998 colon = test system: HCC-2998 colon
RXF-631 renal = test system: RXF-631 renal
SK-MEL-5 melanoma = test system: SK-MEL-5 melanoma
SNB-75 CNS = test system: SNB-75 CNS
UACC-62 melanoma = test system: UACC-62 melanoma
CAKI-1 renal = test system: CAKI-1 renal

For `N#CCCOCN(CO)c1nc(N(CO)COCCC#N)nc(N(CO)COCCC#N)n1`, the TGI (A498 renal) was over 100 µM, the TGI (A549 NSCLC) was 58.3 µM and the TGI (ACHN renal) was 76.1 µM. It also gave a TGI (CCRF-CEM leukemia) of 58 µM, a TGI (COLO 205 colon) of 32.3 µM and a TGI (DLD-1 colon) of 75.9 µM. The TGI (DMS 114 small cell lung) was 52.4 µM, the TGI (DMS 273 small cell lung) was 32.8 µM and the TGI (EKVX NSCLC) was 93.7 µM. For the same compound, the TGI (HCT-116 colon) was 63.8 µM, the TGI (HCT-15 colon) was 37.3 µM and the TGI (HL-60(TB) leukemia) was 41.6 µM. For the same compound, the TGI (HOP-18 NSCLC) was 59.6 µM, the TGI (HOP-62 NSCLC) was over 100 µM and the TGI (HOP-92 NSCLC) was 45.8 µM. The TGI (HT29 colon) was 69.9 µM, the TGI (IGROV1 ovarian) was over 100 µM and the TGI (K-562 leukemia) was 61.2 µM. It also gave a TGI (KM12 colon) of over 100 µM, a TGI (KM20L2 colon) of 61.5 µM and a TGI (LOX IMVI melanoma) of over 100 µM. For the same compound, the TGI (LXFL 529 NSCLC) was 42.5 µM, the TGI (M14 melanoma) was 45.1 µM and the TGI (M19-MEL melanoma) was 50 µM. For the same compound, the TGI (MALME-3M melanoma) was 46.9 µM, the TGI (MOLT-4 leukemia) was 50.7 µM and the TGI (NCI-H226 lung) was 53.1 µM. It also gave a TGI (NCI-H23 lung) of 71.5 µM, a TGI (NCI-H460 lung) of 81.3 µM and a TGI (NCI-H522 lung) of 47.5 µM. For the same compound, the TGI (OVCAR-3 ovarian) was 59.3 µM, the TGI (OVCAR-4 ovarian) was 64 µM and the TGI (OVCAR-5 ovarian) was over 100 µM. For the same compound, the TGI (OVCAR-8 ovarian) was 34.7 µM, the TGI (RPMI-8226 leukemia) was 56.1 µM and the TGI (RXF 393 renal) was 38.4 µM. The TGI (SF-268 CNS) was 45.1 µM, the TGI (SF-295 CNS) was 43.7 µM and the TGI (SF-539 CNS) was 8.63 µM. For the same compound, the TGI (SK-MEL-2 melanoma) was 38.6 µM, the TGI (SK-MEL-28 melanoma) was 38.8 µM and the TGI (SK-OV-3 ovarian) was over 100 µM. It also gave a TGI (SN12C renal) of 44.2 µM, a TGI (SNB-19 CNS) of over 100 µM and a TGI (SNB-78 CNS) of over 100 µM. The TGI (SR leukemia) was 41.7 µM, the TGI (SW-620 colon) was 29.5 µM and the TGI (TK-10 renal) was 91.2 µM. It also gave a TGI (U251 CNS) of over 100 µM, a TGI (UACC-257 melanoma) of 63.9 µM and a TGI (UO-31 renal) of 43.2 µM. It also gave a TGI (XF 498 CNS) of 31.5 µM.
With `O=C1OC(c2ccccc2)=N/C1=C\c1cc(Cl)ccc1Cl` the TGI (786-0 renal) was over 100 µM, the TGI (A498 renal) was over 100 µM and the TGI (A549 NSCLC) was over 100 µM. For the same compound, the TGI (ACHN renal) was over 100 µM, the TGI (CCRF-CEM leukemia) was 66.8 µM and the TGI (COLO 205 colon) was over 100 µM. For the same compound, the TGI (DLD-1 colon) was over 100 µM, the TGI (DMS 114 small cell lung) was over 100 µM and the TGI (EKVX NSCLC) was over 100 µM. The TGI (HCC-2998 colon) was over 100 µM, the TGI (HCT-116 colon) was over 100 µM and the TGI (HCT-15 colon) was 82.9 µM. The TGI (HL-60(TB) leukemia) was 35.3 µM, the TGI (HOP-18 NSCLC) was over 100 µM and the TGI (HOP-62 NSCLC) was over 100 µM. The TGI (HOP-92 NSCLC) was over 100 µM, the TGI (HT29 colon) was over 100 µM and the TGI (IGROV1 ovarian) was over 100 µM. It also gave a TGI (K-562 leukemia) of over 100 µM, a TGI (KM12 colon) of over 100 µM and a TGI (KM20L2 colon) of over 100 µM. The TGI (LXFL 529 NSCLC) was 86 µM, the TGI (M14 melanoma) was over 100 µM and the TGI (M19-MEL melanoma) was over 100 µM. It also gave a TGI (MALME-3M melanoma) of over 100 µM, a TGI (MOLT-4 leukemia) of 53.7 µM and a TGI (NCI-H23 lung) of over 100 µM. It also gave a TGI (NCI-H460 lung) of over 100 µM, a TGI (NCI-H522 lung) of over 100 µM and a TGI (OVCAR-4 ovarian) of over 100 µM. It also gave a TGI (OVCAR-5 ovarian) of over 100 µM, a TGI (RPMI-8226 leukemia) of over 100 µM and a TGI (RXF 393 renal) of over 100 µM. For the same compound, the TGI (RXF-631 renal) was over 100 µM, the TGI (SF-268 CNS) was over 100 µM and the TGI (SF-295 CNS) was over 100 µM. It also gave a TGI (SF-539 CNS) of over 100 µM, a TGI (SK-MEL-2 melanoma) of over 100 µM and a TGI (SK-MEL-28 melanoma) of over 100 µM. The TGI (SK-MEL-5 melanoma) was over 100 µM, the TGI (SN12C renal) was over 100 µM and the TGI (SNB-19 CNS) was over 100 µM. It also gave a TGI (SNB-75 CNS) of 36.3 µM, a TGI (SNB-78 CNS) of over 100 µM and a TGI (SW-620 colon) of over 100 µM. The TGI (U251 CNS) was over 100 µM, the TGI (UACC-257 melanoma) was over 100 µM and the TGI (UACC-62 melanoma) was over 100 µM. The TGI (UO-31 renal) was over 100 µM.
`COC(=O)CS(=O)c1ccccc1` (centres undefined) gave a TGI (786-0 renal) of 72.4 µM, a TGI (A498 renal) of over 100 µM and a TGI (A549 NSCLC) of over 100 µM. It also gave a TGI (ACHN renal) of over 100 µM, a TGI (CAKI-1 renal) of over 100 µM and a TGI (CCRF-CEM leukemia) of 63.2 µM. The TGI (COLO 205 colon) was over 100 µM, the TGI (DLD-1 colon) was over 100 µM and the TGI (DMS 114 small cell lung) was 56.5 µM. The TGI (DMS 273 small cell lung) was 84.4 µM, the TGI (EKVX NSCLC) was over 100 µM and the TGI (HCC-2998 colon) was over 100 µM. It also gave a TGI (HCT-116 colon) of over 100 µM, a TGI (HCT-15 colon) of over 100 µM and a TGI (HL-60(TB) leukemia) of 37 µM. It also gave a TGI (HOP-62 NSCLC) of 83.3 µM, a TGI (HOP-92 NSCLC) of over 100 µM and a TGI (HT29 colon) of over 100 µM. The TGI (IGROV1 ovarian) was 54 µM, the TGI (K-562 leukemia) was over 100 µM and the TGI (KM12 colon) was over 100 µM. The TGI (LOX IMVI melanoma) was 44.4 µM, the TGI (LXFL 529 NSCLC) was over 100 µM and the TGI (M14 melanoma) was over 100 µM. It also gave a TGI (M19-MEL melanoma) of over 100 µM, a TGI (MALME-3M melanoma) of over 100 µM and a TGI (MOLT-4 leukemia) of 41.4 µM. The TGI (NCI-H23 lung) was over 100 µM, the TGI (NCI-H460 lung) was over 100 µM and the TGI (NCI-H522 lung) was 30.1 µM. The TGI (OVCAR-3 ovarian) was over 100 µM, the TGI (OVCAR-4 ovarian) was over 100 µM and the TGI (OVCAR-5 ovarian) was over 100 µM. It also gave a TGI (OVCAR-8 ovarian) of 87.9 µM, a TGI (RPMI-8226 leukemia) of 52.2 µM and a TGI (RXF 393 renal) of 49.2 µM. It also gave a TGI (SF-268 CNS) of 91.6 µM, a TGI (SF-295 CNS) of over 100 µM and a TGI (SF-539 CNS) of 44.1 µM. It also gave a TGI (SK-MEL-2 melanoma) of over 100 µM, a TGI (SK-MEL-28 melanoma) of over 100 µM and a TGI (SK-MEL-5 melanoma) of over 100 µM. It also gave a TGI (SK-OV-3 ovarian) of over 100 µM, a TGI (SN12C renal) of 40.4 µM and a TGI (SNB-19 CNS) of over 100 µM. It also gave a TGI (SNB-78 CNS) of over 100 µM, a TGI (SW-620 colon) of over 100 µM and a TGI (TK-10 renal) of over 100 µM. It also gave a TGI (U251 CNS) of 98.6 µM, a TGI (UACC-257 melanoma) of over 100 µM and a TGI (UACC-62 melanoma) of over 100 µM. It also gave a TGI (UO-31 renal) of 22.1 µM and a TGI (XF 498 CNS) of over 100 µM.
